According to patent publication US7919505B2, “Xinafoate salt of a substituted 5-oxazol-2-yl-quinoline compound” (Schering Corporation, priority 2006, dated 2011):
Structures can show the parent of a compound that is named as a salt.

Tests used:
inflammatory cells = test: Allergic Brown-Norway rat assay: inhibition of recruitment of inflammatory cells into the airways (BALF cell counts after OVA challenge); assay type: in vivo, Brown-Norway rats
Protocol: Assay Protocol for Allergic Brown-Norway Rats:
Inbred male BN rats weighing 150 to 200 g were obtained from Charles River Laboratory (Wilmington, Mass.). Prior to use, the animals were allowed food and water ad libitum. The test compounds were administered 5 h prior to antigen challenge either by oral or inhalational route, as detailed in the “delivery of test compounds” section.
Sensitization and Antigen Bronchoprovocation
The animals were divided into two main groups viz. an alum group and an antigen group. In the antigen group, animals were sensitized by an intra-peritoneal (i.p.) injection of 1 ml alum-precipitated antigen containing 20 μg of ovalbumin (OVA, grade III; Sigma chemical Co., St Louis, Mo.) and 8 mg of Al(OH)3 suspended in 0.9% saline vehicle. A booster injection of this alum-OVA mixture was given again 7 days later. Animals belonging to the alum group received injections containing alum only. Seven days after the second injection, animals were exposed to aerosolized antigen bronchoprovocation which was performed by placing the rats in an enclosed plexiglass chamber (21 liters) and exposing the rats to aerosolized OVA (1%) for 30 min. The aerosolized OVA was produced by an ultrasonic nebulizer (DeVilbiss, Somerset, Pa., USA; Model Ultra-Neb 99) at a flow rate of approximately 8 liters/min. […]

Rat PK assay = assay type: in vivo, Sprague Dawley rats; conditions: Sprague Dawley, plasma, 30 mg/kg, 30 mpk po
Protocol: Using the above test procedure, the following results were obtained: • tartrate salt: monkey AUC=30 ng.h/mL at 10 mpk po • xinafoate salt: monkey AUC=0 ng.h/mL at 10 mpk po Assay Protocol for Rat PK Assay:
[…] The dose volume was 5 ml/kg dose. Plasma was collected at 0.5, 1, 2, 3, 4, and 6 hr. Blood samples were collected with heparin, and the plasma was stored with EDTA.

rats = test: Lung function assay (forced expiratory maneuvers after ovalbumin challenge); assay type: in vivo; conditions: 5 hr before antigen challenge
Protocol: Two fasted Sprague Dawley rats were dosed orally at 10 mpk with compound in 0.4% HPMC vehicle. The dose volume was 5 ml/kg dose. Plasma was collected at 0.5, 1, 2, 3, 4, and 6 hr. Blood samples were collected with heparin, and the plasma was stored with EDTA.
Lung function was measured using a forced expiratory maneuvers technique. In this procedure, the rats were anesthetized and a tracheal catheter was inserted. The rats were placed inside a whole body plethysmograph that contained a breathing valve capable of separating inflations and deflations of the lungs. The lungs were then subject to forced inflation of the lungs to total lung capacity followed by rapid deflation to residual volume. Measurements of forced vital capacity and peak expiratory flow were used to measure the effects of antigen challenge and assess the inhibitory effects of the compound of formula I. The drug was admixed with lactose for intratracheal delivery and given directly into the trachea with a fine microsprayer 5 hr before the antigen challenge. Orally delivered compound was given in 0.4% methylcellulose vehicle 5 hr before the antigen challenge. Control animals received intratracheal lactose or methylcellulose, respectively. The antigen challenge consisted of aerosolized exposure for 30 min to 1% ovalbumin. Forced expiratory lung functions were measured 24 hr after the antigen (ovalbumin) exposure.

[1] = Physical properties of salts of Compound A (hygroscopicity, hydrate stability); assay type: physicochemical; conditions: solid salt

| Molecule | inhibition of inflammatory cells (inflammatory cells; 0.02 mpk, intra-tracheal dosing, 5 h prior to antigen challenge, allergic BN rats) [%] | better inhibition of inflammatory cells via intra-trachea administration compared to oral administration (inflammatory cells; intra-trachea vs oral administration) [fold] | AUC (Rat PK assay) [ng·h/mL] | inhibition of forced vital capacity (FVC) (rats; 0.02 mpk it (intra-tracheal)) [%] | inhibition of forced vital capacity (FVC) (rats; 3 mpk po) [%] | hygroscopicity [1] | stability of crystalline forms [1] |
| --- | --- | --- | --- | --- | --- | --- | --- |
| CCOC(=O)[C@@H]1C[C@@H](NC(=O)C2CC2)CN1C(=O)c1nc(-c2ccc(OC)c3nc(C(F)(F)F)ccc23)oc1[C@H](C)N [xinafoate salt, xinafoate salt of 1-[[5-(1(S)-aminoethyl)-2-[8-methoxy-2-(trifluoromethyl)5-quinolyl]-4-oxazolyl]carbonyl]-4(R)-[(cyclopropyl-carbonyl)amino]-L-proline, ethyl ester] | 69 | 25 | 350 | 54 | 31 | non-hygroscopic |  |
| fumarate |  |  |  |  |  |  | unstable hydrates |
